Data as given in patent US9073874B2, “Cyclic N,N′-diarylthioureas and N,N′-diarylureas-androgen receptor antagonists, anticancer agent, method for preparation and use thereof” (priority 2010, dated 2015).

Tests used:
β1 (h) = β1 (h) (Homo sapiens, UniProt P08588); assay: competitive radioligand binding assay, β1 (h) (agonist radioligand)
β2 (h) = β2 (h) (Homo sapiens, UniProt P07550); assay: competitive radioligand binding assay, β2 (h) (agonist radioligand)
AT1 (h) = AT1 (h) (Homo sapiens, UniProt P30556); assay: competitive radioligand binding assay, AT1 (h) (antagonist radioligand)
CB2 (h) = CB2 (h) (Homo sapiens, UniProt P34972); assay: competitive radioligand binding assay, CB2 (h) (agonist radioligand)
CCK1 (CCKA) (h) = CCK1 (CCKA) (h) (Homo sapiens, UniProt P32238); assay: competitive radioligand binding assay, CCK1 (CCKA) (h) (agonist radioligand)
CCK2 (CCKB) (h) = CCK2 (CCKB) (h) (Homo sapiens, UniProt P32239); assay: competitive radioligand binding assay, CCK2 (CCKB) (h) (agonist radioligand)
CCK2 (CCKB) (h), sequence (P32239 whole entry): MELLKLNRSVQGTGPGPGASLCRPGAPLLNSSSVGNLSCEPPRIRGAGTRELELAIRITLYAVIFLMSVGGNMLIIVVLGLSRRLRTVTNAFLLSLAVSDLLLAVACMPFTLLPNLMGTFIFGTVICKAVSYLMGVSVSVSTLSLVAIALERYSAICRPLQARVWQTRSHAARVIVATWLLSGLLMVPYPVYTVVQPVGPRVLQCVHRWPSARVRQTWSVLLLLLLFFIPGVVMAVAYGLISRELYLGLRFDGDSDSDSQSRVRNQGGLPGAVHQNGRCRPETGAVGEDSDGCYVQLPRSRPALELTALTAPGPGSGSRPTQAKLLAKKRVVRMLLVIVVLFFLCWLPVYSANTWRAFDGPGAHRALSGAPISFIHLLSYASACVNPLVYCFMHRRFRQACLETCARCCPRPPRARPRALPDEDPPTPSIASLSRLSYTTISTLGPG

D3 (h) = D3 (h) (Homo sapiens, UniProt P35462); assay: competitive radioligand binding assay, D3 (h) (antagonist radioligand)
D4.4 (h) = D4.4 (h) (Homo sapiens, UniProt P21917); assay: competitive radioligand binding assay, D4.4 (h) (antagonist radioligand)
D4.4 (h), sequence (P21917 whole entry): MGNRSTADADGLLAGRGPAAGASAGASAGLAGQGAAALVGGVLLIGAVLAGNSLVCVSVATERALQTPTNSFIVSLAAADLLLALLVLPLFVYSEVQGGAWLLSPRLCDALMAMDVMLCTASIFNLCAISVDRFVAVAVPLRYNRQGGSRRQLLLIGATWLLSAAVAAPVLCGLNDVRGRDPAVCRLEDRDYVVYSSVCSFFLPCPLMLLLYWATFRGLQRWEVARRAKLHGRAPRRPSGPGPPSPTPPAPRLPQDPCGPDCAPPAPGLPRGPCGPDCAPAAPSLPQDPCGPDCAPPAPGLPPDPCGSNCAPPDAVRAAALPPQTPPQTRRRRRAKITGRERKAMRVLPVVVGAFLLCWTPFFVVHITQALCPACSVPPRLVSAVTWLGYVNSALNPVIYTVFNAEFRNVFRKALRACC

ETA (h) = ETA (h) (Homo sapiens, UniProt P25101); assay: competitive radioligand binding assay, ETA (h) (agonist radioligand)
ETA (h), sequence (P25101 21-427): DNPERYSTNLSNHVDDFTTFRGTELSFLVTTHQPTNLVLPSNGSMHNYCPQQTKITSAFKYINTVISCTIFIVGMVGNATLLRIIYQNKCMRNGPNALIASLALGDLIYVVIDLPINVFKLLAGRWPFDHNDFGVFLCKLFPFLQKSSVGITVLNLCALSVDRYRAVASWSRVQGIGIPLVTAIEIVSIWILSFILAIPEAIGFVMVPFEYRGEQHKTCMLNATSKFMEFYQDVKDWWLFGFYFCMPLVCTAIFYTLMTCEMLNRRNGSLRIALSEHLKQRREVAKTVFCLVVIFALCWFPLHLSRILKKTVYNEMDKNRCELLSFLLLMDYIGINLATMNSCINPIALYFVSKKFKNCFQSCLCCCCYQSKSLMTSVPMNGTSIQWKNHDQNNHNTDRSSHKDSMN

ETB (h) = ETB (h) (Homo sapiens, UniProt P24530); assay: competitive radioligand binding assay, ETB (h) (agonist radioligand)
ETB (h), sequence (P24530 27-442): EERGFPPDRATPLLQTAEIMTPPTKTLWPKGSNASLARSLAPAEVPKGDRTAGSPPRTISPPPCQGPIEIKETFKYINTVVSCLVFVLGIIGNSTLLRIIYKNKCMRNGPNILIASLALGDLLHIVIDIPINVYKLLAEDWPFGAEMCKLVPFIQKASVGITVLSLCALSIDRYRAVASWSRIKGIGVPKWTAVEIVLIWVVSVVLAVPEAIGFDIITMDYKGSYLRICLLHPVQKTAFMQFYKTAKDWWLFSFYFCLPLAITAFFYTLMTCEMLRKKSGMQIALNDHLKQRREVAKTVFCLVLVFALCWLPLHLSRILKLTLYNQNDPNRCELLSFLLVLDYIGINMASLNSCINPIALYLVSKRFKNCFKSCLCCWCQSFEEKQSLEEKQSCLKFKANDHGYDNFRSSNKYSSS

H1 (h) = H1 (h) (Homo sapiens, UniProt P35367); assay: competitive radioligand binding assay, H1 (h) (antagonist radioligand)
MC4 (h) = MC4 (h) (Homo sapiens, UniProt P32245); assay: competitive radioligand binding assay, MC4 (h) (agonist radioligand)
MC4 (h), sequence (P32245 whole entry): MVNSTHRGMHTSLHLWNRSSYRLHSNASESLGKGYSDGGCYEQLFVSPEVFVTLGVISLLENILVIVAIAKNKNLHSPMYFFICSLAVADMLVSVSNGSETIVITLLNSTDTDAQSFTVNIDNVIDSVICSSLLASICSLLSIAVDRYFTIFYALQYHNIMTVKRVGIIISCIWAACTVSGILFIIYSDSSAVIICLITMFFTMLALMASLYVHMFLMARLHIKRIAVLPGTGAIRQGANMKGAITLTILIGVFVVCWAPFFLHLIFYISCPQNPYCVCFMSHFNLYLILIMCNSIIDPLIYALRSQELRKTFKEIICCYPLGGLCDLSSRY

MT1 (ML1A) (h) = MT1 (ML1A) (h) (Homo sapiens, UniProt P48039); assay: competitive radioligand binding assay, MT1 (ML1A) (h) (agonist radioligand)
NK3 (h) = NK3 (h) (Homo sapiens, UniProt P29371); assay: competitive radioligand binding assay, NK3 (h) (antagonist radioligand)
NK3 (h), sequence (P29371 whole entry): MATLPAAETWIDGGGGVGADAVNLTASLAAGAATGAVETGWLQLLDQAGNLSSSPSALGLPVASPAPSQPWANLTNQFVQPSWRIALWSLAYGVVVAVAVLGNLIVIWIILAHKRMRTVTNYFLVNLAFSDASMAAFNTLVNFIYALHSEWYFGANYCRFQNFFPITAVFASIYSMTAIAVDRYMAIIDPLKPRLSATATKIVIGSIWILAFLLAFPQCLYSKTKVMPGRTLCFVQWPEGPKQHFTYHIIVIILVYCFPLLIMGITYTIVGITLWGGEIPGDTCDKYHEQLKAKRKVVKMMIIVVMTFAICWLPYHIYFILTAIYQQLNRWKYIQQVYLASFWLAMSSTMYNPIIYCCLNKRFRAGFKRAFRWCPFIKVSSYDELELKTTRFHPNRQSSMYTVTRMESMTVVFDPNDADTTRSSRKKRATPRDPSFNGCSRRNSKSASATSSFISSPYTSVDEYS

NOP (ORL1) (h) = NOP (ORL1) (h) (Homo sapiens, UniProt P41146); assay: competitive radioligand binding assay, NOP (ORL1) (h) (agonist radioligand)
PPARγ (h) = PPARγ (h) (Homo sapiens, UniProt P37231); assay: competitive radioligand binding assay, PPARγ (h) (agonist radioligand)
PPARγ (h), sequence (P37231 whole entry): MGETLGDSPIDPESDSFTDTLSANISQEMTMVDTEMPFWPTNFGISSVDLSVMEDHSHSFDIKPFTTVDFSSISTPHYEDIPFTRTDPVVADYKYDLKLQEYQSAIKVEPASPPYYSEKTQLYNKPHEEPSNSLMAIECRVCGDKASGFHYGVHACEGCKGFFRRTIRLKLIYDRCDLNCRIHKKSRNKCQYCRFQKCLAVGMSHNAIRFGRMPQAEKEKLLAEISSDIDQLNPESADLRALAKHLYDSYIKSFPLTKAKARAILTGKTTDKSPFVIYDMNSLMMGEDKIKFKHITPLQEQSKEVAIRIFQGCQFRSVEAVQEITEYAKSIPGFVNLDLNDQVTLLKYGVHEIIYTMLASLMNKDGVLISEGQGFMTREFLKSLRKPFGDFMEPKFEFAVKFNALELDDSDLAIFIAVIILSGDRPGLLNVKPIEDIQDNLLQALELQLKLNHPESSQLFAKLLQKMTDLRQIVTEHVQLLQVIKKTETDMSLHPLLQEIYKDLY

PCP = assay: competitive radioligand binding assay, PCP (antagonist radioligand); conditions: 10 μM
IP (PGI2) (h) = IP (PGI2) (h) (Homo sapiens, UniProt P43119); assay: competitive radioligand binding assay, IP (PGI2) (h) (agonist radioligand)
IP (PGI2) (h), sequence (P43119 whole entry): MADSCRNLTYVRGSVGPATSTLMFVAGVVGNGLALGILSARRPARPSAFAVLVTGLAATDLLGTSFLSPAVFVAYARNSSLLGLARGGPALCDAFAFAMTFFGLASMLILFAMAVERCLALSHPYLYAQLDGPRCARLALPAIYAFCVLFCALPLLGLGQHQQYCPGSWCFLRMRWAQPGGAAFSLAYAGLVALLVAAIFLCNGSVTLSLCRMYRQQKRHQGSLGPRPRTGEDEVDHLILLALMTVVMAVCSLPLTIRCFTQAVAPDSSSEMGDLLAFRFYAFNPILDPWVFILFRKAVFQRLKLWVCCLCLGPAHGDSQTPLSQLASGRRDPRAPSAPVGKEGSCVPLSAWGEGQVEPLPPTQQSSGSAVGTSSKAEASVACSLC

GR (h) = GR (h) (Homo sapiens, UniProt P04150); assay: competitive radioligand binding assay, GR (h) (agonist radioligand)
TRH1 (h) = TRH1 (h) (Homo sapiens, UniProt P34981); assay: competitive radioligand binding assay, TRH1 (h) (agonist radioligand)
V1 a (h) = V1 a (h) (Homo sapiens, UniProt P37288); assay: competitive radioligand binding assay, V1 a (h) (agonist radioligand)
V1 a (h), sequence (P37288 whole entry): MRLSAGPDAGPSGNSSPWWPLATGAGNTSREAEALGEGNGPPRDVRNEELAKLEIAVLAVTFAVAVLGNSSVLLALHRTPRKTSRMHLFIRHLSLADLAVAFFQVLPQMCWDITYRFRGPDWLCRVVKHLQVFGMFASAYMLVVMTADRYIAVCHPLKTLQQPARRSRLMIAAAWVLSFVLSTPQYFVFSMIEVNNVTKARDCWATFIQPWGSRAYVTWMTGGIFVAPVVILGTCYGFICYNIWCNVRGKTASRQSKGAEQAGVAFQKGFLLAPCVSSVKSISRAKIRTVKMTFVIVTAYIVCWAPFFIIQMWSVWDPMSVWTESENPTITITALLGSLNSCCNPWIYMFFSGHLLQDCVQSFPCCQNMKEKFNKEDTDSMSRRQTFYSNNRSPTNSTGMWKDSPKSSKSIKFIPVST

[1] = system: Ca2+ channel (L, dihydropyridine site); assay: competitive radioligand binding assay, Ca2+ channel (L, dihydropyridine site) (antagonist radioligand); conditions: 10 μM
[2] = system: Ca2+ channel (L, diltiazem site) (benzothiazepines); assay: competitive radioligand binding assay, Ca2+ channel (L, diltiazem site) (benzothiazepines) (antagonist radioligand); conditions: 10 μM
KATP channel = assay: competitive radioligand binding assay, KATP channel (antagonist radioligand); conditions: 10 μM
Na+ channel (site 2) = assay: competitive radioligand binding assay, Na+ channel (site 2) (antagonist radioligand); conditions: 10 μM
LnCAP cells = assay: Inhibition of DHT-stimulated proliferation of LnCAP cells; format: cell-based, human
Description: The expression of PSA was measured in the culture medium 24 hours thereafter (FIG. 1). […] The LnCAP cells were cultured for a further 5 days and the number of viable cells was then calculated.
FIG. 2. Inhibition of DHT-stimulated proliferation of LnCAP cells.

[3] = Distribution in plasma, brain and prostate after single IV administration in rats; format: in vivo; conditions: single IV 2 mg/kg
CYP 3A = CYP 3A induction assay; format: in vitro ADME

β1 (h), sequence (P08588 whole entry): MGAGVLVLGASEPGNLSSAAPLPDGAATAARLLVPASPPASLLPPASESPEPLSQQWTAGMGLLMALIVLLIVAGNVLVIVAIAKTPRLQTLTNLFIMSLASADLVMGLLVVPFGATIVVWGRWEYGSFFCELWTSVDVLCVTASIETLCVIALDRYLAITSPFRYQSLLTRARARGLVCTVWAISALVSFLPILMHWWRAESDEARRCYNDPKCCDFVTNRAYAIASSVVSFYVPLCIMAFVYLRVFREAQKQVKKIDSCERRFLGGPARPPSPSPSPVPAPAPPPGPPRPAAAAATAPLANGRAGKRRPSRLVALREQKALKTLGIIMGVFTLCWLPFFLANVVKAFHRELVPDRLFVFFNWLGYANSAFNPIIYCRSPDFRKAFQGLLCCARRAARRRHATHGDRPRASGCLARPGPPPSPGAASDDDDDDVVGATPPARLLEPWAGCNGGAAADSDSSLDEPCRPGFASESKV
β2 (h), sequence (P07550 whole entry): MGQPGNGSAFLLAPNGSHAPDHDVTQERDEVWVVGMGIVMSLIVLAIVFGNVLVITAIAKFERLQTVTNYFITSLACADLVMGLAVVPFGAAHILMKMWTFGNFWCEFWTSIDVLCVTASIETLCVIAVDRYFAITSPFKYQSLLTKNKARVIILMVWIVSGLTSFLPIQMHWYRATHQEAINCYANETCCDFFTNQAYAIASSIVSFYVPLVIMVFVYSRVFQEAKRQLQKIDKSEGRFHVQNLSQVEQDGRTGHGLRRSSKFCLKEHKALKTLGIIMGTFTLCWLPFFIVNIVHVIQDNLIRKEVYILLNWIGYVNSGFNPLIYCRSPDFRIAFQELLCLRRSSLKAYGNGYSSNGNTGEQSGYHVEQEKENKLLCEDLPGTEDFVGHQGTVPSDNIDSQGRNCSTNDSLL

**Q.** For CNC(=O)c1ccc(N2C(=S)N(c3ccc(C#N)c(C(F)(F)F)c3)C(=O)[C@]23CCOC3)cc1F [(R)-1, 4-[(R)-3-(4-cyano-3-trifluoromethyl-phenyl)-4-oxo-2-thioxo-7-oxa-1,3-diaza-spiro[4.4]non-1-yl]-2-fluoro-N-methyl-benzamide], which inhibition at 10 µM (β1 (h)) is on record?
**A.** 1.8%

**Q.** What about the inhibition at 10 µM (β2 (h)) of the same compound?
**A.** -8%

**Q.** What about the inhibition at 10 µM (AT1 (h)) of the same compound?
**A.** 0.5%

**Q.** What about the inhibition at 10 µM (CB2 (h)) of the same compound?
**A.** 9.1%

**Q.** And the inhibition at 10 µM (CCK1 (CCKA) (h))?
**A.** 10.6%

**Q.** What about the inhibition at 10 µM (CCK2 (CCKB) (h)) of the same compound?
**A.** -2.5%

**Q.** And the inhibition at 10 µM (D3 (h))?
**A.** -4.8%

**Q.** What about the inhibition at 10 µM (D4.4 (h)) of the same compound?
**A.** -4.7%

**Q.** What about the inhibition at 10 µM (ETA (h)) of the same compound?
**A.** -2.5%

**Q.** And the inhibition at 10 µM (ETB (h))?
**A.** -1.7%

**Q.** What about the inhibition at 10 µM (H1 (h)) of the same compound?
**A.** 0.7%

**Q.** And the inhibition at 10 µM (MC4 (h))?
**A.** -3.1%

**Q.** And the inhibition at 10 µM (MT1 (ML1A) (h))?
**A.** -6.2%

**Q.** And the inhibition at 10 µM (NK3 (h))?
**A.** -4.5%

**Q.** And the inhibition at 10 µM (NOP (ORL1) (h))?
**A.** -1.7%

**Q.** And the inhibition at 10 µM (PPARγ (h))?
**A.** -19.2%

**Q.** And the “% Inhibition” value (PCP)?
**A.** 0.5%

**Q.** What about the inhibition at 10 µM (IP (PGI2) (h)) of the same compound?
**A.** -7.3%

**Q.** And the inhibition at 10 µM (GR (h))?
**A.** 29.4%

**Q.** What about the inhibition at 10 µM (TRH1 (h)) of the same compound?
**A.** 3.4%

**Q.** And the inhibition at 10 µM (V1 a (h))?
**A.** 12.3%

**Q.** What about the “% Inhibition” value [1] of the same compound?
**A.** −2.5%

**Q.** What about the “% Inhibition” value [2] of the same compound?
**A.** −23.6%

**Q.** And the “% Inhibition” value (KATP channel)?
**A.** −0.8%

**Q.** And the “% Inhibition” value (Na+ channel (site 2))?
**A.** −11.6%

**Q.** What about the IC50 (LnCAP cells; Homo sapiens, LNCaP, 120 h, read-out: IC50, inhibition of DHT-induced cell proliferation) of the same compound?
**A.** 30 nM

**Q.** What about the “fold more efficient than III in inhibiting DHT-induced cell proliferation” value (LnCAP cells; LnCAP cells, versus III) of the same compound?
**A.** around 8 fold

**Q.** And the “fold more efficient than Ia in inhibiting DHT-induced cell proliferation” value (LnCAP cells; LnCAP cells, versus Ia)?
**A.** around 6 fold

**Q.** What about the concentration at 30 min ([3]; rat, plasma, 30 min, Mean ± SD, n = 3) of the same compound?
**A.** 746 ± 104 ng/mL

**Q.** And the concentration at 120 min ([3]; rat, plasma, 120 min, Mean ± SD, n = 3)?
**A.** 522 ± 57 ng/mL

**Q.** And the Brain/Plasma ([3]; 30 min)?
**A.** 0.19 ± 0.02

**Q.** And the Prostate/Plasma ([3]; 30 min)?
**A.** 1.55 ± 0.08

**Q.** What about the Brain ([3]; 30 min, Mean ± SD, n = 3) of the same compound?
**A.** 145 ± 22 ng/g

**Q.** What about the Plasma ([3]; 30 min, Mean ± SD, n = 3) of the same compound?
**A.** 746 ± 104 ng/mL

**Q.** What about the Prostate ([3]; 30 min, Mean ± SD, n = 3) of the same compound?
**A.** 1159 ± 164 ng/g

**Q.** What about the Brain/Plasma ([3]; 120 min) of the same compound?
**A.** 0.17 ± 0.35

**Q.** And the Prostate/Plasma ([3]; 120 min)?
**A.** 1.20 ± 0.36

**Q.** And the Brain ([3]; 120 min, Mean ± SD, n = 3)?
**A.** 89 ± 10 ng/g

**Q.** And the Plasma ([3]; 120 min, Mean ± SD, n = 3)?
**A.** 522 ± 57 ng/mL

**Q.** And the Prostate ([3]; 120 min, Mean ± SD, n = 3)?
**A.** 625 ± 108 ng/g

**Q.** What about the “Positive control, % (CYP 3A induction)” value (CYP 3A; Concentration 1 μM) of the same compound?
**A.** 0.0 ± 2.0%

**Q.** And the “Positive control, % (CYP 3A induction)” value (CYP 3A; Concentration 10 μM)?
**A.** 42.0 ± 6.1%
